Source: patent publication US11377469B2, “CD73 inhibitors” (ORIC Pharmaceuticals, Inc., priority 2017, dated 2022)

target: CD73 (Homo sapiens (Human), UniProt P21589); experiment: Biochemical Assay (CD73 inhibition, AMP hydrolysis, Malachite Green readout); conditions: CD73 0.3208 nM, AMP 15 μM, Tris-HCl pH 7.4, Malachite Green absorbance
Sequence (P21589 27-574): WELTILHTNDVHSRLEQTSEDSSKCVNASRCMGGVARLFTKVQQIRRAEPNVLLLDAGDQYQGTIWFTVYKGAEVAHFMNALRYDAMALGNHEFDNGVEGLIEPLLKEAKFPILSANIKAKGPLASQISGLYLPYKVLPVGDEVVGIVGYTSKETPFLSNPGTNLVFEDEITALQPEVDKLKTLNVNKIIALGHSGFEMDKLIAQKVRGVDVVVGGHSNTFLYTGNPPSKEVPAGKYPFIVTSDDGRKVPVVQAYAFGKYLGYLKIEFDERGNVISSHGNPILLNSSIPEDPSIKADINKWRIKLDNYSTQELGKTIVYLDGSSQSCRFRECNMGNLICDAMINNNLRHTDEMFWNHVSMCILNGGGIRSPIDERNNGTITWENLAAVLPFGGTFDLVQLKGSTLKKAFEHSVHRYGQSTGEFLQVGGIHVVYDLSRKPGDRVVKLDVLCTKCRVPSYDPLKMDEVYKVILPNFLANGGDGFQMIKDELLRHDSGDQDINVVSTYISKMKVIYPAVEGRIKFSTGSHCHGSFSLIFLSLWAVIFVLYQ

| IC50 [µM] | Compound |
| --- | --- |
| ≤ 0.5 | O=P(O)(O)COC[C@H]1O[C@@H](n2ncc3c(NCc4cccc5ncccc45)nc(Cl)nc32)[C@H](O)[C@@H]1O [Example 51, ((((2R,3S,4R,5R)-5-(6-chloro-4-((quinolin-5-ylmethyl)amino)-1H-pyrazolo[3,4-d]pyrimidin-1-yl)-3,4-dihydroxytetrahydrofuran-2-yl)methoxy)methyl)phosphonic acid] |
| > 1 | O=P(O)(O)COC[C@H]1O[C@@H](n2ncc3c(OCc4cccc(Cl)c4)nc(Cl)nc32)[C@H](O)[C@@H]1O [Example 65, ((((2R,3S,4R,5R)-5-(6-chloro-4-((3-chlorobenzyl)oxy)-1H-pyrazolo[3,4-d]pyrimidin-1-yl)-3,4-dihydroxytetrahydrofuran-2-yl)methoxy)methyl)phosphonic acid] |
| ≤ 0.5 | C[C@H](Nc1nc(Cl)nc2c1cnn2[C@@H]1O[C@H](CS(=O)(=O)CP(=O)(O)O)[C@@H](O)[C@H]1O)c1ccc(F)cc1 [Example 116, (((((2S,3S,4R,5R)-5-(6-chloro-4-(((S)-1-(4-fluorophenyl)ethyl)amino)-1H-pyrazolo[3,4-d]pyrimidin-1-yl)-3,4-dihydroxytetrahydrofuran-2-yl)methyl)sulfonyl)methyl)phosphonic acid] |
| ≤ 0.5 | O=P(O)(O)COC[C@H]1O[C@@H](n2ncc3c(NCc4cccc(Cl)c4F)nc(Cl)nc32)[C@H](O)[C@@H]1O [Example 58, ((((2R,3S,4R,5R)-5-(6-chloro-4-((3-chloro-2-fluorobenzyl)amino)-1H-pyrazolo[3,4-d]pyrimidin-1-yl)-3,4-dihydroxytetrahydrofuran-2-yl)methoxy)methyl)phosphonic acid] |
| ≤ 0.5 | O=P(O)(O)COC[C@H]1O[C@@H](n2ncc3c(NC[C@H]4CCCO4)nc(Cl)nc32)[C@H](O)[C@@H]1O [Example 70, ((((2R,3S,4R,5R)-5-(6-chloro-4-((((R)-tetrahydrofuran-2-yl)methyl)amino)-1H-pyrazolo[3,4-d]pyrimidin-1-yl)-3,4-dihydroxytetrahydrofuran-2-yl)methoxy)methyl)phosphonic acid] |
| 0.5 to 1 | Nc1nc(Cl)nc2c1cnn2[C@@H]1O[C@H](COCP(=O)(O)O)[C@@H](O)[C@H]1O [Example 57, ((((2R,3S,4R,5R)-5-(4-amino-6-chloro-1H-pyrazolo[3,4-d]pyrimidin-1-yl)-3,4-dihydroxytetrahydrofuran-2-yl)methoxy)methyl)phosphonic acid] |
| ≤ 0.5 | CN(C[C@H]1O[C@@H](n2ncc3c(NC4CCCC4)nc(Cl)nc32)[C@H](O)[C@@H]1O)C(=O)CP(=O)(O)O [Example 109, (2-((((2R,3S,4R,5R)-5-(6-chloro-4-(cyclopentylamino)-1H-pyrazolo[3,4-d]pyrimidin-1-yl)-3,4-dihydroxytetrahydrofuran-2-yl)methyl)(methyl)amino)-2-oxoethyl)phosphonic acid] |
| > 1 | CN(c1nc(Cl)nc2c1cnn2[C@@H]1O[C@H](CCP(=O)(O)O)[C@@H](O)[C@H]1O)[C@H]1CCc2ccccc21 [Example 4, (2-((2R,3S,4R,5R)-5-(6-Chloro-4-(((S)-2,3-dihydro-1H-inden-1-yl)(methyl)amino)-1H-pyrazolo[3,4-d]pyrimidin-1-yl)-3,4-dihydroxytetrahydrofuran-2-yl)ethyl)phosphonic acid] |
| ≤ 0.5 | O=P(O)(O)COC[C@H]1O[C@@H](n2ncc3c(N4CCCC4)nc(Cl)nc32)[C@H](O)[C@@H]1O [Example 81, ((((2R,3S,4R,5R)-5-(6-chloro-4-(pyrrolidin-1-yl)-1H-pyrazolo[3,4-d]pyrimidin-1-yl)-3,4-dihydroxytetrahydrofuran-2-yl)methoxy)methyl)phosphonic acid] |
| ≤ 0.5 | O=P(O)(O)CS(=O)(=O)C[C@H]1O[C@@H](n2cnc3c(NC4CCCC4)nc(Cl)nc32)[C@H](O)[C@@H]1O [Example 112, (((((2S,3S,4R,5R)-5-(2-chloro-6-(cyclopentylamino)-9H-purin-9-yl)-3,4-dihydroxytetrahydrofuran-2-yl)methyl)sulfonyl)methyl)phosphonic acid] |
| ≤ 0.5 | O=P(O)(O)CS(=O)(=O)C[C@H]1O[C@@H](n2ncc3c(N[C@H]4CCc5ccccc54)nc(Cl)nc32)[C@H](O)[C@@H]1O [Example 123, (((((2S,3S,4R,5R)-5-(6-chloro-4-(((S)-2,3-dihydro-1H-inden-1-yl)amino)-1H-pyrazolo[3,4-d]pyrimidin-1-yl)-3,4-dihydroxytetrahydrofuran-2-yl)methyl)sulfonyl)methyl)phosphonic acid] |
| ≤ 0.5 | CCNc1nc(Cl)nc2c1cnn2[C@@H]1O[C@H](COCP(=O)(O)O)[C@@H](O)[C@H]1O [Example 43, ((((2R,3S,4R,5R)-5-(6-chloro-4-(ethylamino)-1H-pyrazolo[3,4-d]pyrimidin-1-yl)-3,4-dihydroxytetrahydrofuran-2-yl)methoxy)methyl)phosphonic acid] |
| ≤ 0.5 | CN(Cc1cccc(Cl)c1)c1nc(Cl)nc2c1cnn2[C@@H]1O[C@H](COCP(=O)(O)O)[C@@H](O)[C@H]1O [Example 37, ((((2R,3S,4R,5R)-5-(6-chloro-4-((3-chlorobenzyl)(methyl)amino)-1H-pyrazolo[3,4-d]pyrimidin-1-yl)-3,4-dihydroxytetrahydrofuran-2-yl)methoxy)methyl)phosphonic acid] |
| ≤ 0.5 | CC(C)CNc1nc(Cl)nc2c1cnn2[C@@H]1O[C@H](COCP(=O)(O)O)[C@@H](O)[C@H]1O [Example 63, ((((2R,3S,4R,5R)-5-(6-chloro-4-(isobutylamino)-1H-pyrazolo[3,4-d]pyrimidin-1-yl)-3,4-dihydroxytetrahydrofuran-2-yl)methoxy)methyl)phosphonic acid] |
| ≤ 0.5 | C[C@H](Nc1nc(Cl)nc2c1cnn2[C@@H]1O[C@H](COCP(=O)(O)O)[C@@H](O)[C@H]1O)C1CC1 [Example 91, ((((2R,3S,4R,5R)-5-(6-chloro-4-(((S)-1-cyclopropylethyl)amino)-1H-pyrazolo[3,4-d]pyrimidin-1-yl)-3,4-dihydroxytetrahydrofuran-2-yl)methoxy)methyl)phosphonic acid] |
| 0.5 to 1 | CN(Cc1ccccc1Cl)c1nc(Cl)nc2c1cnn2[C@@H]1O[C@H](COCP(=O)(O)O)[C@@H](O)[C@H]1O [Example 64, ((((2R,3S,4R,5R)-5-(6-chloro-4-((2-chlorobenzyl)(methyl)amino)-1H-pyrazolo[3,4-d]pyrimidin-1-yl)-3,4-dihydroxytetrahydrofuran-2-yl)methoxy)methyl)phosphonic acid] |
| 0.5 to 1 | CN(c1nc(Cl)nc2c1nnn2[C@@H]1O[C@H](COCP(=O)(O)O)[C@@H](O)[C@H]1O)[C@H]1CCc2ccccc21 [Example 26, ((((2R,3S,4R,5R)-5-(5-chloro-7-(((S)-2,3-dihydro-1H-inden-1-yl)(methyl)amino)-3H-[1,2,3]triazolo[4,5-d]pyrimidin-3-yl)-3,4-dihydroxytetrahydrofuran-2-yl)methoxy)methyl)phosphonic acid] |
| ≤ 0.5 | O=P(O)(O)COC[C@H]1O[C@@H](n2ncc3c(N[C@H]4CCc5ccccc54)nc(Cl)nc32)[C@H](O)[C@@H]1O [Example 25, ((((2R,3S,4R,5R)-5-(6-chloro-4-(((S)-2,3-dihydro-1H-inden-1-yl)amino)-1H-pyrazolo[3,4-d]pyrimidin-1-yl)-3,4-dihydroxytetrahydrofuran-2-yl)methoxy)methyl)phosphonic acid] |
| ≤ 0.5 | CN(Cc1ccccc1)c1nc(Cl)nc2c1cnn2[C@@H]1O[C@H](COCP(=O)(O)O)[C@@H](O)[C@H]1O [Example 7, ((((2R,3S,4R,5R)-5-(4-(Benzyl(methyl)amino)-6-chloro-1H-pyrazolo[3,4-d]pyrimidin-1-yl)-3,4-dihydroxytetrahydrofuran-2-yl)methoxy)methyl)phosphonic acid] |
| ≤ 0.5 | O=P(O)(O)COC[C@H]1O[C@@H](n2ccc3c(NCc4ccccc4Cl)nc(Cl)nc32)[C@H](O)[C@@H]1O [Example 40, ((((2R,3S,4R,5R)-5-(2-chloro-4-((2-chlorobenzyl)amino)-7H-pyrrolo[2,3-d]pyrimidin-7-yl)-3,4-dihydroxytetrahydrofuran-2-yl)methoxy)methyl)phosphonic acid] |
| ≤ 0.5 | O=P(O)(O)CS(=O)(=O)C[C@H]1O[C@@H](n2ncc3c(NC4CCCC4)nc(CO)nc32)[C@H](O)[C@@H]1O [Example 125, (((((2S,3S,4R,5R)-5-(4-(cyclopentylamino)-6-(hydroxymethyl)-1H-pyrazolo[3,4-d]pyrimidin-1-yl)-3,4-dihydroxytetrahydrofuran-2-yl)methyl)sulfonyl)methyl)phosphonic acid] |
| ≤ 0.5 | C[C@H](Nc1nc(Cl)nc2c1cnn2[C@@H]1O[C@H](COCP(=O)(O)O)[C@@H](O)[C@H]1O)c1cccc(Cl)c1 [Example 34, ((((2R,3S,4R,5R)-5-(6-chloro-4-(((S)-1-(3-chlorophenyl)ethyl)amino)-1H-pyrazolo[3,4-d]pyrimidin-1-yl)-3,4-dihydroxytetrahydrofuran-2-yl)methoxy)methyl)phosphonic acid] |
| ≤ 0.5 | C[C@@H]1CCC[C@@H]1Nc1nc(Cl)nc2c1cnn2[C@@H]1O[C@H](COCP(=O)(O)O)[C@@H](O)[C@H]1O [Example 104, ((((2R,3S,4R,5R)-5-(6-chloro-4-(((1S,2R)-2-methylcyclopentyl)amino)-1H-pyrazolo[3,4-d]pyrimidin-1-yl)-3,4-dihydroxytetrahydrofuran-2-yl)methoxy)methyl)phosphonic acid] |
| ≤ 0.5 | O=P(O)(O)CS(=O)(=O)C[C@H]1O[C@@H](n2nnc3c(NCc4ccc(F)cc4)nc(Cl)nc32)[C@H](O)[C@@H]1O [Example 119] |
| ≤ 0.5 | O=P(O)(O)COC[C@H]1O[C@@H](n2ccc3c(NCC4CC4)nc(Cl)nc32)[C@H](O)[C@@H]1O [Example 15, ((((2R,3S,4R,5R)-5-(2-Chloro-4-((cyclopropylmethyl)amino)-7H-pyrrolo[2,3-d]pyrimidin-7-yl)-3,4-dihydroxytetrahydrofuran-2-yl)methoxy)methyl)phosphonic acid] |
| ≤ 0.5 | CN(CC1CC1)c1nc(Cl)nc2c1cnn2[C@@H]1O[C@H](COCP(=O)(O)O)[C@@H](O)[C@H]1O [Example 72, ((((2R,3S,4R,5R)-5-(6-chloro-4-((cyclopropylmethyl)(methyl)amino)-1H-pyrazolo[3,4-d]pyrimidin-1-yl)-3,4-dihydroxytetrahydrofuran-2-yl)methoxy)methyl)phosphonic acid] |
